Measured values published in ChEMBL document CHEMBL1208667, “Permanent positive charge strongly influences DNA/RNA binding and antiproliferative activity of urea-phenanthridinium conjugates” (Eur J Med Chem, 2010).
Calls of active or inactive are those of the source. The rule behind the calls is not given here.

Experiments:
Calf thymus DNA [1] = test: Binding affinity to calf thymus DNA in citric acid buffer at pH 5 by fluorescence titration assay relative to control; type: nucleic-acid assay; conditions: Bos taurus
Calf thymus DNA [2] = test: Binding affinity to calf thymus DNA in citric acid buffer at pH 5 by fluorescence titration assay; type: nucleic-acid assay; conditions: Bos taurus
Nucleic Acid [3] = test: Binding affinity to poly dA-poly dT RNA in citric acid buffer at pH 5 by fluorescence titration assay relative to control; type: nucleic-acid assay
Nucleic Acid [4] = test: Binding affinity to poly A-poly U RNA in citric acid buffer at pH 5 by fluorescence titration assay; type: nucleic-acid assay
Nucleic Acid [5] = test: Binding affinity to poly G-poly C RNA in citric acid buffer at pH 5 by fluorescence titration assay relative to control; type: nucleic-acid assay
Nucleic Acid [6] = test: Binding affinity to poly G-poly C RNA in citric acid buffer at pH 5 by fluorescence titration assay; type: nucleic-acid assay
Calf thymus DNA [7] = test: Binding affinity to calf thymus DNA in sodium cacodylate buffer at pH 7 by fluorescence titration assay relative to control; type: nucleic-acid assay; conditions: Bos taurus
Calf thymus DNA [8] = test: Binding affinity to calf thymus DNA in sodium cacodylate buffer at pH 7 by fluorescence titration assay; type: nucleic-acid assay; conditions: Bos taurus
Nucleic Acid [9] = test: Binding affinity to poly dA-poly dT RNA in sodium cacodylate buffer at pH 7 by fluorescence titration assay; type: nucleic-acid assay
Nucleic Acid [10] = test: Binding affinity to poly A-poly U RNA in sodium cacodylate buffer at pH 7 by fluorescence titration assay relative to control; type: nucleic-acid assay
Nucleic Acid [11] = test: Binding affinity to poly A-poly U RNA in sodium cacodylate buffer at pH 7 by fluorescence titration assay; type: nucleic-acid assay
Nucleic Acid [12] = test: Binding affinity to poly G-poly C RNA in sodium cacodylate buffer at pH 7 by fluorescence titration assay relative to control; type: nucleic-acid assay
Nucleic Acid [13] = test: Binding affinity to poly G-poly C RNA in sodium cacodylate buffer at pH 7 by fluorescence titration assay; type: nucleic-acid assay
Nucleic Acid [14] = test: Binding affinity to poly dA-poly dT RNA in sodium cacodylate buffer at pH 7 by UV-v titration assay; type: nucleic-acid assay
Calf thymus DNA [15] = test: Binding affinity to calf thymus DNA assessed as change in melting temperature at compound to DNA molar ratio of 0.2 at pH 5 by thermal denaturation assay; type: nucleic-acid assay; conditions: Bos taurus
Calf thymus DNA [16] = test: Binding affinity to calf thymus DNA assessed as change in melting temperature at compound to DNA molar ratio of 0.3 at pH 5 by thermal denaturation assay; type: nucleic-acid assay; conditions: Bos taurus
Nucleic Acid [17] = test: Binding affinity to […] assessed as change in melting temperature at compound to DNA molar ratio of 0.2 at pH 5 by thermal denaturation assay; type: nucleic-acid assay
Nucleic Acid [18] = test: Binding affinity to poly A-poly U RNA assessed as change in melting temperature at compound to DNA molar ratio of 0.2 at pH 5 by thermal denaturation assay; type: nucleic-acid assay
Calf thymus DNA [19] = test: Binding affinity to calf thymus DNA assessed as change in melting temperature at compound to DNA molar ratio of 0.2 at pH 7 by thermal denaturation assay; type: nucleic-acid assay; conditions: Bos taurus
Calf thymus DNA [20] = test: Binding affinity to calf thymus DNA assessed as change in melting temperature at compound to DNA molar ratio of 0.3 at pH 7 by thermal denaturation assay; type: nucleic-acid assay; conditions: Bos taurus
Nucleic Acid [21] = test: Binding affinity to […] assessed as change in melting temperature at compound to DNA molar ratio of 0.2 at pH 7 by thermal denaturation assay; type: nucleic-acid assay
Nucleic Acid [22] = test: Binding affinity to […] assessed as change in melting temperature at compound to DNA molar ratio of 0.3 at pH 7 by thermal denaturation assay; type: nucleic-acid assay
Nucleic Acid [23] = test: Binding affinity to poly A-poly U RNA assessed as change in melting temperature at compound to DNA molar ratio of 0.2 at pH 7 by thermal denaturation assay; type: nucleic-acid assay
Nucleic Acid [24] = test: Binding affinity to poly A-poly U RNA assessed as change in melting temperature at compound to DNA molar ratio of 0.3 at pH 7 by thermal denaturation assay; type: nucleic-acid assay
Calf thymus DNA [25] = test: Binding affinity to calf thymus DNA at compound to DNA molar ratio of 0.1 to 0.5 at pH 5 by circular dichroism; type: nucleic-acid assay; conditions: Bos taurus
Caco-2 [26] = test: Cytotoxicity against human Caco-2 cells at 100 uM after 72 hrs by MTT assay; type: functional, cell-based
MIA PaCa-2 [27] = test: Cytotoxicity against human MIAPaCa2 cells at 100 uM after 72 hrs by MTT assay; type: functional; conditions: MIA PaCa-2, 72 h
MIA PaCa-2 [28] = test: Cytotoxicity against human MIAPaCa2 cells after 72 hrs by MTT assay; type: functional, cell-based
Caco-2 [29] = test: Cytotoxicity against human Caco-2 cells at 0.1 to 100 uM after 72 hrs by MTT assay; type: functional, cell-based
MIA PaCa-2 [30] = test: Cytotoxicity against human MIAPaCa2 cells at 0.1 to 100 uM after 72 hrs by MTT assay; type: functional, cell-based
HeLa = test: Cytotoxicity against human HeLa cells at 0.1 to 100 uM after 72 hrs by MTT assay; type: functional, cell-based
HT-29 = test: Cytotoxicity against human HT-29 cells at 0.1 to 100 uM after 72 hrs by MTT assay; type: functional, cell-based
Nucleic Acid [31] = test: Binding affinity to AMP in citric acid buffer at pH 5 by fluorescence titration assay relative to control; type: nucleic-acid assay
Nucleic Acid [32] = test: Binding affinity to CMP in citric acid buffer at pH 5 by fluorescence titration assay relative to control; type: nucleic-acid assay
Nucleic Acid [33] = test: Binding affinity to UMP in citric acid buffer at pH 5 by fluorescence titration assay relative to control; type: nucleic-acid assay
Nucleic Acid [34] = test: Binding affinity to AMP in sodium cacodylate buffer at pH 7 by fluorescence titration assay relative to control; type: nucleic-acid assay
Nucleic Acid [35] = test: Binding affinity to GMP in sodium cacodylate buffer at pH 7 by fluorescence titration assay relative to control; type: nucleic-acid assay
Nucleic Acid [36] = test: Binding affinity to CMP in sodium cacodylate buffer at pH 7 by fluorescence titration assay relative to control; type: nucleic-acid assay
Nucleic Acid [37] = test: Binding affinity to UMP in sodium cacodylate buffer at pH 7 by fluorescence titration assay relative to control; type: nucleic-acid assay
Calf thymus DNA [38] = test: Binding affinity to calf thymus DNA assessed as melting temperature at compound to DNA molar ratio of 0.2 at pH 5 by thermal denaturation assay; type: nucleic-acid assay; conditions: Bos taurus
Calf thymus DNA [39] = test: Binding affinity to calf thymus DNA assessed as melting temperature at compound to DNA molar ratio of 0.2 at pH 7 by thermal denaturation assay; type: nucleic-acid assay; conditions: Bos taurus
Nucleic Acid [40] = test: Binding affinity to […] assessed as melting temperature at compound to DNA molar ratio of 0.2 at pH 7 by thermal denaturation assay; type: nucleic-acid assay
Nucleic Acid [41] = test: Binding affinity to […] assessed as melting temperature at compound to DNA molar ratio of 0.3 at pH 7 by thermal denaturation assay; type: nucleic-acid assay
Nucleic Acid [42] = test: Binding affinity to poly A-poly U RNA assessed as melting temperature at compound to DNA molar ratio of 0.2 at pH 7 by thermal denaturation assay; type: nucleic-acid assay
Nucleic Acid [43] = test: Binding affinity to poly A-poly U RNA assessed as biphasic transitions of change in melting temperature at compound to DNA molar ratio of 0.2 at pH 5 by thermal denaturation assay; type: nucleic-acid assay
Nucleic Acid [44] = test: Binding affinity to poly A-poly U RNA assessed as biphasic transitions of melting temperature at compound to DNA molar ratio of 0.2 at pH 5 by thermal denaturation assay; type: nucleic-acid assay

Cc1c2cc(NC(=O)NCCCCCCCCCNC(=O)Nc3ccc4c(c3)c(C)[n+](C)c3ccccc43)ccc2c2ccccc2[n+]1C.O=S(=O)([O-])O.O=S(=O)([O-])O
RFU (Calf thymus DNA [1]): 0.3 | log Ks (Calf thymus DNA [2]): 5.6 | RFU (Nucleic Acid [3]): 2.3 | log Ks (Nucleic Acid [4]): 5.4 | RFU (Nucleic Acid [5]): 0 | log Ks (Nucleic Acid [6]): 5.2 | RFU (Calf thymus DNA [7]): 0.7 | log Ks (Calf thymus DNA [8]): 5.9 | log Ks (Nucleic Acid [9]): 5.6 | RFU (Nucleic Acid [10]): 4 | log Ks (Nucleic Acid [11]): 5.8 | RFU (Nucleic Acid [12]): 0.5 | log Ks (Nucleic Acid [13]): 5.4 | log Ks (Nucleic Acid [14]): 5.3 | ΔTm (Calf thymus DNA [15]): 13.2 °C | ΔTm (Calf thymus DNA [16]): 13.4 °C | ΔTm (Nucleic Acid [17]): 7.5 °C | ΔTm (Nucleic Acid [18]): 1.8 °C | ΔTm (Calf thymus DNA [19]): 4.9 °C | ΔTm (Calf thymus DNA [20]): 5.8 °C | ΔTm (Nucleic Acid [21]): 4.2 °C | ΔTm (Nucleic Acid [22]): 5.5 °C | ΔTm (Nucleic Acid [23]): 2.3 °C | ΔTm (Nucleic Acid [24]): 2.1 °C | Activity (Calf thymus DNA [25]): Active | Activity (Caco-2 [26]): inactive | inhibition at 100 µM (MIA PaCa-2 [27]): 26.8% | Activity (MIA PaCa-2 [28]): Dose-dependent effect | Activity (Caco-2 [29]): inactive | Activity (MIA PaCa-2 [30]): inactive | Activity (HeLa): inactive | Activity (HT-29): inactive | RFU (Nucleic Acid [31]): -38.5 | RFU (Nucleic Acid [32]): -6.4 | RFU (Nucleic Acid [33]): -15.8 | RFU (Nucleic Acid [34]): -55 | RFU (Nucleic Acid [35]): -16.7 | RFU (Nucleic Acid [36]): -9.4 | RFU (Nucleic Acid [37]): 1.02 | Tm (Calf thymus DNA [38]): 73.8 °C | Tm (Calf thymus DNA [39]): 84.2 °C | Tm (Nucleic Acid [40]): 69.1 °C | Tm (Nucleic Acid [41]): 70.4 °C | Tm (Nucleic Acid [42]): 53.8 °C | ΔTm (Nucleic Acid [43]): -1.3 °C | Tm (Nucleic Acid [44]): 31 °C

Cc1c2cc(NC(=O)NCCCCCCNC(=O)Nc3ccc4c(c3)c(C)[n+](C)c3ccccc43)ccc2c2ccccc2[n+]1C.O=S(=O)([O-])O.O=S(=O)([O-])O
RFU (Calf thymus DNA [1]): 2.7 | log Ks (Calf thymus DNA [2]): > 7 | RFU (Nucleic Acid [3]): 24 | log Ks (Nucleic Acid [4]): 5.6 | RFU (Nucleic Acid [5]): 0 | log Ks (Nucleic Acid [6]): 5.5 | RFU (Calf thymus DNA [7]): 1.8 | log Ks (Calf thymus DNA [8]): 6.2 | log Ks (Nucleic Acid [9]): 5.3 | RFU (Nucleic Acid [10]): 15.8 | log Ks (Nucleic Acid [11]): 5.4 | RFU (Nucleic Acid [12]): 0.3 | log Ks (Nucleic Acid [13]): 6.2 | log Ks (Nucleic Acid [14]): 5.6 | ΔTm (Calf thymus DNA [15]): 14 °C | ΔTm (Calf thymus DNA [16]): 15.7 °C | ΔTm (Nucleic Acid [17]): 9.7 °C | ΔTm (Nucleic Acid [18]): 2.2 °C | ΔTm (Calf thymus DNA [19]): 3.9 °C | ΔTm (Calf thymus DNA [20]): 5.5 °C | ΔTm (Nucleic Acid [21]): 5.2 °C | ΔTm (Nucleic Acid [22]): 6.4 °C | ΔTm (Nucleic Acid [23]): 0 °C | ΔTm (Nucleic Acid [24]): 0 °C | Activity (Calf thymus DNA [25]): Active | Activity (Caco-2 [26]): Active | inhibition at 100 µM (MIA PaCa-2 [27]): 43.1% | Activity (MIA PaCa-2 [28]): Dose-dependent effect | Activity (Caco-2 [29]): Active | Activity (MIA PaCa-2 [30]): Active | Activity (HeLa): Active | Activity (HT-29): Active | RFU (Nucleic Acid [31]): 3.8 | RFU (Nucleic Acid [32]): -15.3 | RFU (Nucleic Acid [33]): -11.5 | RFU (Nucleic Acid [34]): -47.8 | RFU (Nucleic Acid [35]): 6.3 | RFU (Nucleic Acid [36]): 3.5 | RFU (Nucleic Acid [37]): 3.5 | Tm (Calf thymus DNA [38]): 74.6 °C | Tm (Calf thymus DNA [39]): 83.2 °C | Tm (Nucleic Acid [40]): 70.1 °C | Tm (Nucleic Acid [41]): 71.3 °C | Tm (Nucleic Acid [42]): 51.5 °C | ΔTm (Nucleic Acid [43]): -1.2 °C | Tm (Nucleic Acid [44]): 31.4 °C
